In article PMC4802308, “Integrating computational and chemical biology tools in the discovery of antiangiogenic small molecule ligands of FGF2 derived from endogenous inhibitors” (Scientific Reports, 2016):

Tests used:
[1] = test system: FGF2 mitogenic activity; parameters: method as in PMID 12676958; conditions: read-out: IC50, inhibition of FGF2 mitogenic activity; cited from earlier work
[2] = target: T1, FGF2 (Homo sapiens, UniProt P09038, A3E/C211S/C229S/S5E); experiment: NMR titration (1H-15N HSQC) of 15N-labeled FGF2; assay type: binding; conditions: pH 5.5, 25 °C
T1 construct: purchased ASLA (Riga, Latvia)
T1 sequence (P09038 with tags, fused parts or gaps isoform P09038-2 C78S/C96S limits assumed): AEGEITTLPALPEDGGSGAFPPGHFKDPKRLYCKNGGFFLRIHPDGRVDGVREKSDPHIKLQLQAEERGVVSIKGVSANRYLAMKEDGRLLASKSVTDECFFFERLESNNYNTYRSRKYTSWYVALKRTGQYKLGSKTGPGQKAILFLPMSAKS
Method: In order to investigate whether the functionalized phenylamino-substituted naphthalenes maintained the ability of TSP-1 and SM27 to target the heparin interaction site of FGF2[16][21], interaction studies between SM.1–31 or SM.1–34 (showing the highest activity) and FGF2 were performed by NMR. Each SM was titrated into a solution of ^15N-enriched FGF2 protein and a series of 2D ^1H^15N-HSQC experiments were recorded to follow the protein changes induced by the ligand. […] Residues showing the highest perturbations are Arg129 and Lys144, as previously observed for SM27, pointing to similar interactions that likely involve inhibitors SO3 groups.
NMR samples contained 0.57 mM ^15N-labeled FGF2, dissolved in a buffer containing 50 mM potassium phosphate, 2 mM NaN3, and 10 mM deuterated DTT in 90% H2O/10% D2O, pH 5.5. For the identification of the binding region, SM.1–34 and SM.1–31 were incrementally added to protein solutions up to SM:FGF2 stoichiometric ratio of 3. NMR data were collected on a Bruker DMX 500 MHz spectrometer at 25 °C. 2D ^1H-^15N HSQC spectra were recorded with a sweep width of 13 ppm (^1H) and 40 ppm (^15N). 1k × 128 data points were used in proton and nitrogen dimensions, respectively. Data, acquired and processed using Topspin (Bruker Biospin), were apodized with a squared sinebell shifted by 90° and polynomial baseline correction. […]

[3] = test system: BAEC; experiment: FGF2-induced endothelial cell proliferation assay; assay type: cell-based, Bovine; conditions: FGF2 5 ng/ml, 72 h
Method: (§1) Figure 4 Biological activity of the selected hits. (A) Endothelial cell proliferation. BAEC were exposed to FGF2 (5 ng/ml) with increasing concentrations of molecules (3–80 μM). After 72 h, cells were stained and proliferation measured as absorbance. Data are the percentage of control proliferation (in absence of molecules), mean of value from 2 experiments performed in triplicate. (B–D) Aortic ring assay. Sections of murine aortas were embedded in Matrigel, in the presence of FGF2 (30 ng/ml) and the indicated small molecule. The formation of capillary structures sprouting from the rings was analyzed after 7 and 11 days as described in Methods, and the angiogenic response expressed as area covered by the sprouting structures (arbitrary units, mean and SE, n ≥ 6). (B) Antiangiogenic activity of the small molecules (100 μM). (C) Examples of time-dependent and dose-dependent effect of two compounds (SM.2–20 and SM.2–23), tested at 100 (diamond), 50 (circle) and 25 μM (triangle) compared to control (black squares). (D) Representative pictures of sprouting from control and SM.2–23 treated aortic sections. […] (E) Angiogenic response is evaluated 4 days later, and expressed as number of vessels entering the sponge (mean and SD). […]
BAEC (2500 cells/well) were plated in 96-well plates in DMEM 1.5% FCS. […] Plates were then stained with crystal violet or MTS and analyzed as described.

[4] = target: T2, FGF2 (Homo sapiens, UniProt P09038); experiment: Competition with biotinylated recombinant TSP-1 domain (E123CaG1) for binding to FGF2 (DELFIA); conditions: Fig. 6B
T2 construct: purchased R&D Systems, obtained through the NCI-Biological Resources Branch
T2 sequence (P09038 134-288 limits assumed): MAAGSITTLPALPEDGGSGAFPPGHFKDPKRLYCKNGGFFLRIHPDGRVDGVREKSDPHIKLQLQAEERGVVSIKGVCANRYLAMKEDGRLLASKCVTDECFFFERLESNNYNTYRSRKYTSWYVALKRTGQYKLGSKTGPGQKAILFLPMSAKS
Text: Of the identified hits, 23 (Fig. 1 and Suppl. Table S1), made available from the NCI (NIH), were subjected to experimental analysis of FGF2 binding. We used an indirect assay, based on the competition of the tested molecules with the recombinant TSP-1 type III domain for binding to FGF2, an approach previously employed to analyze the FGF2/SM27 binding.
Figure 2 FGF2-binding property of the selected hits, analyzed with an indirect assay, as ability to compete with the TSP-1 fragment E123CaG1 (comprising the type III repeats domain) for FGF2 binding, as described in Methods. Binding of the biotinylated recombinant domain to FGF2 in the presence or absence of each molecule (5 μM). Data are the percentage of control binding, mean and SE of 3 experiments performed in triplicate. *p < 0.05 compared to control (ANOVA followed by Bonferroni test).
DELFIA® Microtitration plates and reagents were from PerkinElmer. Plates were coated overnight at 4 °C with FGF2 (0.1 μg in 40 μl /well PBS). After washing, non-specific binding sites were saturated by a 30 minute incubation with PBS 1% BSA. The biotin-labeled recombinant TSP-1 fragment (10 nM) was added in 40 μl PBS 1% BSA with or without the indicated concentration of small molecules, and incubated for 3 h at room temperature. The plates were washed with PBS 0.1% BSA and incubated for 1 h with 100 μl/well Eu-Labeled Streptavidin 1:1000 at room temperature. After washing, plates were incubated with DELFIA® Enhancement Solution. Time resolved fluorescence was measured using a Victor[3] multilabel plate reader (PerkinElmer).

[5] = test system: FGF2-induced angiogenesis; experiment: Chorioallantoic membrane (CAM) assay; assay type: in vivo, White Leghorn chicken; conditions: FGF2 200 ng, compound 0.5 μg
Method: as §1, with “μM).” for “μM). (C) Examples of time-dependent and dose-dependent effect of two compounds (SM.2–20 and SM.2–23), tested at 100 (diamond), 50 (circle) and 25 μM (triangle) compared to control (black squares). (D) Representative pictures of sprouting from control and SM.2–23 treated aortic sections.”
Fertilized White Leghorn chicken eggs were incubated at 37 °C at constant humidity. […] At day 12, CAMs were photographed in ovo under a stereomicroscope (Olympus), and blood vessels entering the sponge within the focal plane of the CAM were counted by two observers in double blind.

[6] = target: T2, FGF2; experiment: Competition with biotinylated recombinant TSP-1 domain (E123CaG1) for binding to FGF2 (DELFIA); conditions: for IC50: mean ± SE of 3 experiments; for fold more active than the initial query SM27 (competition IC50): vs SM27
[7] = target: T2, FGF2; experiment: SPR direct binding to sensorchip-immobilized FGF2; conditions: single site model, one experiment representative of two, read-out: Kd (dissociation constant) of FGF2/compound interaction
Method: SPR measurements were performed on a BIAcore X100 instrument (GE-Healthcare, WI). FGF2 was immobilized on a CM5 sensorchip (GE-Healthcare) as described, allowing the immobilization of 7,365 resonance units (RU) (410 fmol/mm^2 of FGF-2).
Suppl. Table S2. Determination of the affinity (Kd) of the FGF2/compound interactions by
Binding parameters were calculated by the non-linear curve fitting software package BIAevaluation
3.2 using a single site model with correction for mass transfer. Dissociation constant (Kd) values
were derived from the dissociation rate/association ratio. Only sensorgrams whose fitting gave
values of X2 lower than 10 were used {Khalifa, 2001 #213}.

[8] = test system: FGF2-induced vessels sprouting, murine aortic rings; experiment: Aortic rings assay (FGF2-induced vessels sprouting, 3D Matrigel); parameters: species or system C57BL/6 mice; conditions: FGF2 30 ng/ml, small molecules 100 μM
Method: Figure 4 Biological activity of the selected hits. (A) Endothelial cell proliferation. BAEC were exposed to FGF2 (5 ng/ml) with increasing concentrations of molecules (3–80 μM). After 72 h, cells were stained and proliferation measured as absorbance. Data are the percentage of control proliferation (in absence of molecules), mean of value from 2 experiments performed in triplicate. (B–D) Aortic ring assay. Sections of murine aortas were embedded in Matrigel, in the presence of FGF2 (30 ng/ml) and the indicated small molecule. The formation of capillary structures sprouting from the rings was analyzed after 7 and 11 days as described in Methods, and the angiogenic response expressed as area covered by the sprouting structures (arbitrary units, mean and SE, n ≥ 6). (B) Antiangiogenic activity of the small molecules (100 μM). (C) Examples of time-dependent and dose-dependent effect of two compounds (SM.2–20 and SM.2–23), tested at 100 (diamond), 50 (circle) and 25 μM (triangle) compared to control (black squares). (D) Representative pictures of sprouting from control and SM.2–23 treated aortic sections. Original magnification, 20x. (E,F) Chorioallantoic membrane assay. FGF2 (200 ng) was administered in the absence or presence of the indicated compound (0.5 μg) on day 8 (n = 10). (E) Angiogenic response is evaluated 4 days later, and expressed as number of vessels entering the sponge (mean and SD). (F) Representative pictures are shown. Original magnification, 50x.
Thoracic aortas were removed from mice, cleaned of perivascular adipose tissue and cut into 1 mm segments. Matrigel (75 μl, BD Biosciences) was added to 96 well plates, and allowed to gellify at 37 °C for 30 min. Aortic sections were added to the wells, and covered with a second layer of Matrigel and DMEM 5% FCS containing FGF2 (30 ng/ml) and the indicated concentration of the compounds. The formation of capillary structures sprouting from the rings was analyzed after 4, 7 and 11 days with an inverted-phase contrast microscope (IX70; Olympus). Images were analyzed with ImageJ 1.48, and the angiogenic response expressed as area covered by the sprouting structures (arbitrary units), substracted the area of the aortic section.

Structure (SMILES) | affinity for FGF2 indicated by NMR titration [2] | ability to bind FGF2 in the competition assay (phenylamino-substituted naphthalenes) [4] | IC50 [6] [nM] | fold more active than the initial query SM27 (competition IC50) [6] | inhibition of FGF2-induced endothelial cell proliferation (antiproliferative activity) [3] | inhibition of FGF2-induced angiogenesis in the CAM assay [5] | further results
Nc1cccc2cc(S(=O)(=O)O)ccc12 [5-amino-2-naphthalenesulfonate] |  |  |  |  |  |  | IC50 [1]: 265000 nM
Nc1cccc(/N=N/c2c(S(=O)(=O)O)cc3cc(NC(=O)Nc4ccc5c(O)c(/N=N/c6cccc(N)c6)c(S(=O)(=O)O)cc5c4)ccc3c2O)c1 [SM.2–18, 3-((E)-(3-aminophenyl)diazenyl)-7-(3-(6-((E)-(3-aminophenyl)diazenyl)-5-hydroxy-7-sulfonaphthalen-2-yl)ureido)-4-hydroxynaphthalene-2-sulfonic acid] |  |  | 610 ± 60 | 6–11 fold |  | active | 
Cc1ccc(C)c(/N=N/c2c(S(=O)(=O)O)cc3cc(NC(=O)Nc4ccc5c(O)c(/N=N/c6ccc7cc(S(=O)(=O)O)ccc7c6)c(S(=O)(=O)O)cc5c4)ccc3c2O)c1 [SM.2–24, 3-((E)-(2,5-dimethylphenyl)diazenyl)-4-hydroxy-7-(3-(5-hydroxy-7-sulfo-6-((E)-(6-sulfonaphthalen-2-yl)diazenyl)naphthalen-2-yl)ureido)naphthalene-2-sulfonic acid] |  |  | 460 ± 100 | 6–11 fold |  | active | Kd [7]: 111 nM; inhibition of FGF2-induced vessels sprouting [8]: significantly inhibited

Now from value to compound, other results behind:

affinity for FGF2 indicated by NMR titration [2] | ability to bind FGF2 in the competition assay (phenylamino-substituted naphthalenes) [4] | IC50 [6] [nM] | fold more active than the initial query SM27 (competition IC50) [6] | Structure (SMILES) | inhibition of FGF2-induced endothelial cell proliferation (antiproliferative activity) [3] | inhibition of FGF2-induced angiogenesis in the CAM assay [5] | further results
high micromolar range | most active |  |  | O=S(=O)([O-])c1cccc2cc(Nc3ccccc3)ccc12.[Na+] [SM.1–31, sodium 6-(phenylamino)naphthalene-1-sulfonate] | increased activity |  | 
 | inactive |  |  | Oc1cccc2ccc(Nc3ccccc3)cc12 [SM.1–33, 8-hydroxy-N-phenylanaphthalen-2-aminium chloride] | significant loss of activity |  | 
high micromolar range | most active |  |  | O=S(=O)([O-])c1cc(S(=O)(=O)[O-])c2ccc(Nc3ccccc3)cc2c1O.[Na+].[Na+] [SM.1–34, sodium 4-hydroxy-6-(phenylamino)naphthalene-1,3-disulfonate] |  |  | 
